Measurements published in PMC7251097, “Aspartate/asparagine-β-hydroxylase: a high-throughput mass spectrometric assay for discovery of small molecule inhibitors” (Scientific Reports, 2020).
Where a name gives a salt, the structure may show the parent alone. Read-outs that look alike come from different tables or passages of the source.

Biological target: T1, His6-AspH315–758 (human aspartate/asparagine-β-hydroxylase, AspH) (Homo sapiens, UniProt Q12797)
T1 construct: N-Terminally His6-tagged human AspH315–758 (His6-AspH315–758) was produced in E. coli BL21 (DE3) cells; made in house; host or cells: E. coli BL21 (DE3), pET-28a(+) vector
T1 sequence (Q12797 315-758): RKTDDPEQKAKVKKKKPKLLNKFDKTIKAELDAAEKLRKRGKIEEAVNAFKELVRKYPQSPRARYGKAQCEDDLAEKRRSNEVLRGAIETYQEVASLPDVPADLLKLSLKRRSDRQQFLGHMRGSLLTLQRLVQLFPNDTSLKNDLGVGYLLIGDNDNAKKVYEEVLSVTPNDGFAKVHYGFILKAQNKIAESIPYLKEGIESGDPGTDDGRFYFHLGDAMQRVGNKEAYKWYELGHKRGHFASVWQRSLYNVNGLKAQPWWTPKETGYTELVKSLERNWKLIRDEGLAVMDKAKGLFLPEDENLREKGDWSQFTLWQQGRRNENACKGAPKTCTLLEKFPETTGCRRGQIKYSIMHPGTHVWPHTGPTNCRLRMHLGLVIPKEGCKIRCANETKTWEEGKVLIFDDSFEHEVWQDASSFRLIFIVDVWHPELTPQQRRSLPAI
Assay: SPE-MS AspH inhibition assay (LOPAC screen at fixed 20 μM and IC50 dose-response), hydroxylation of cyclic peptide hFX-CP101–119
Assay type: biochemical
Conditions: for Plate 5 (% inhibition) / Plate 5 (% conversion): plate 5 (Pfitzer), test compounds at fixed 20 μM; for Plate 5 (% conversion): mean conversion DMSO 32.88

[1] = LOPAC compound at fixed 20 uM, plate 1, normalised to DMSO and 2,4-PDCA controls
[2] = LOPAC compound at fixed 20 uM, substrate conversion, plate 1
[3] = LOPAC Plate 4, compound at 20 uM, substrate conversion
[4] = AspH activity, fixed compound concentration 20 μM, initial LOPAC screen, 0.5%v/v DMSO, read-out: Inhibition at 20 µM [%]

Row | SMILES | Plate 1 (% inhibition) [1] [%] | Plate 1 (% conversion) [2] [%] | other results
1 | CC(=O)OC(C)C[N+](C)(C)C.[Cl-] (stereo not drawn) [Acetyl-beta-methylcholine chloride] | -15.64 | 41.13 | 
2 | CC(=O)SCC[N+](C)(C)C.[Cl-] [Acetylthiocholine chloride] |  |  | Plate 1 (% conversion): 37.52%; Plate 1 (% inhibition): -4.90%
3 | CCN1C[C@]2(COC)[C@H](O)C[C@H](OC)[C@@]34[C@@H]5C[C@@]6(O)[C@H](OC(=O)c7ccccc7)[C@@H]5[C@@](OC(C)=O)([C@@H]([C@H](OC)[C@H]23)[C@@H]14)[C@@H](O)[C@@H]6OC [Aconitine] |  |  | Plate 1 (% conversion): 40.69%; Plate 1 (% inhibition): -14.35%
4 | CCCCC[C@H](CC(=O)NO)C(=O)N[C@H](C(=O)N1CCC[C@H]1CO)C(C)C [Actinonin] | -5.32 | 37.66 | 
5 | NCCCCN=C(N)N [Agmatine sulfate] | -2.35 |  | Plate 1 (% conversion): 36.66%
6 | COc1ccc2cccc(CCNC(C)=O)c2c1 [Agomelatine] |  |  | Plate 3 (% conversion) (LOPAC compound at 20uM, plate 3, conversion of substrate peptide): 37.59%
7 | CC(C)(C)NCC(O)c1ccc(O)c(CO)c1.CC(C)(C)NCC(O)c1ccc(O)c(CO)c1.O=S(=O)(O)O (stereo not shown) [Albuterol hemisulfate] |  |  | % conversion [3]: 30.81%
8 | NC12CC3CC(CC(C3)C1)C2 [Amantadine hydrochloride] | -1.83 | 36.49 | 
9 | NCCCNCCSP(=O)(O)O [Amifostine] | -14.28 |  | Plate 1 (% conversion): 40.67%
10 | CN1[C@@H]2CC[C@H]1C[C@@H](OC(c1ccccc1)c1ccccc1N)C2 (stereo partly shown) [Aminobenztropine] | -6.68 |  | Plate 1 (% conversion): 38.12%
11 | NN=C(N)N.NN=C(N)N.O=S(=O)(O)O [Aminoguanidine hemisulfate] | 3.68 | 34.64 | 
12 | Cl.N=C(N)NN [Aminoguanidine hydrochloride] | -12.95 | 40.22 | 
13 | Cn1c(=O)c2[nH]cnc2n(C)c1=O.Cn1c(=O)c2[nH]cnc2n(C)c1=O.NCCN [Aminophylline ethylenediamine] | -9.00 | 38.90 | 
14 | Nc1nc(N)c2nc(CNc3ccc(C(=O)N[C@@H](CCC(=O)O)C(=O)O)cc3)cnc2n1 [Aminopterin] | -2.16 |  | Plate 1 (% conversion): 36.60%
15 | CCN1CCCC1CNC(=O)c1cc(S(=O)(=O)CC)c(N)cc1OC (stereo not shown) [Amisulpride] |  |  | % conversion [3]: 40.99%; inhibition at 20 µM (LOPAC Plate 4, compound at 20 uM, read-out: % inhibition): -13.2%
16 | CN(C)CCC=C1c2ccccc2CCc2ccccc21 [Amitriptyline hydrochloride] | -8.33 |  | Plate 1 (% conversion): 38.67%

Row | SMILES | Plate 1 (% inhibition) [1] [%] | Plate 1 (% conversion) [2] [%] | other results
17 | N.S=C(S)N1CCCC1 [Ammonium pyrrolidinedithiocarbamate] |  |  | % conversion [3]: 37.86%
18 | COc1ccc(C(=O)N2CCCC2=O)cc1 [Aniracetam] |  |  | Plate 1 (% conversion): 23.49%; Plate 1 (% inhibition): 36.86%
19 | CCN(CC)CCCN(c1ccccc1)C1Cc2ccccc2C1 [Aprindine hydrochloride] |  |  | % conversion [3]: 34.60%
20 | Nc1nc2c(ncn2[C@@H]2O[C@H](CO)[C@@H](O)[C@@H]2O)c(=O)[nH]1.O [Ara-G hydrate] |  |  | % inhibition (LOPAC Plate 4, compound at 20 uM): -11.19%; % conversion [3]: 40.29%
21 | NC(N)=NCCCCN=C(N)N [Arcaine sulfate] | -5.14 | 37.60 | 
22 | C#CCOC(=O)C1=CCCN(C)C1 [Arecaidine propargyl ester hydrobromide] |  |  | Plate 1 (% conversion): 37.75%; Plate 1 (% inhibition): -5.59%
23 | COC(=O)C1=CCCN(C)C1 [Arecoline hydrobromide] |  |  | Plate 1 (% conversion): 37.04%; Plate 1 (% inhibition): -3.47%
24 | CO[C@H]1O[C@@H]2O[C@@]3(C)CC[C@H]4[C@H](C)CC[C@@H]([C@H]1C)[C@@]24OO3 [Artemether] | -9.16 | 38.95 | 
25 | CC1=C(/C=C/C(C)=C/C=C/C(C)=C/C=C/C=C(C)/C=C/C=C(C)/C=C/C2=C(C)C(=O)[C@@H](O)CC2(C)C)C(C)(C)C[C@H](O)C1=O [Astaxanthin] | -2.40 | 36.68 | 
26 | CN1[C@@H]2CC[C@H]1C[C@@H](OC(=O)C(CO)c1ccccc1)C2 (stereo partly shown) [Atropine sulfate] |  |  | Plate 1 (% inhibition): 2.77%
27 | CC(=O)OC[C@H]1O[C@@H]([S-])[C@H](OC(C)=O)[C@@H](OC(C)=O)[C@@H]1OC(C)=O.CCP(CC)CC.[Au+] [Auranofin] |  |  | % conversion: 18.61%; % inhibition (20 µM): 52.32%
28 | CC(C)=CCC/C(C)=C/COc1ccc2ccc(=O)oc2c1 [Auraptene] |  |  | % conversion [3]: 37.42%
29 | OC[C@H]1O[C@H]([S-])[C@H](O)[C@@H](O)[C@@H]1O.[Au+] [Aurothioglucose] |  |  | Plate 3 (% conversion): 23.41%
30 | CC(C)c1cc(C(C)C)c(CC(=O)NS(=O)(=O)Oc2c(C(C)C)cccc2C(C)C)c(C(C)C)c1 [Avasimibe] |  |  | Plate 5 (% inhibition): 73.14%; Plate 5 (% conversion): 11.42%
31 | CCCCCCCCCCCCCCCCCCN(CCCCCCCCCCCCCCCCCC)CCCN(CCO)CCO [Avridine] |  |  | % conversion [3]: 28.90%; Plate 5 (% inhibition): 10.21%; Plate 5 (% conversion): 32.84%
32 | CNC(=O)c1ccccc1Sc1ccc2c(/C=C/c3ccccn3)n[nH]c2c1 [Axitinib] |  |  | Plate 5 (% inhibition): -7.77%; Plate 5 (% conversion): 38.96%

Continued, in another order:

Row | Plate 1 (% inhibition) [1] [%] | Plate 1 (% conversion) [2] [%] | SMILES | other results
33 | -6.36 | 38.01 | CC(=O)c1ccc(S(=O)(=O)NC(=O)NC2CCCCC2)cc1 [Acetohexamide] | 
34 | -0.51 | 36.04 | CC(=O)Oc1ccccc1C(=O)O [Acetylsalicylic acid] | 
35 | -3.39 | 37.01 | Nc1nc2c(ncn2COCCO)c(=O)[nH]1 [Acyclovir] | 
36 | 4.27 | 34.44 | Nc1ncnc2c1ncn2[C@@H]1O[C@H](CO)[C@@H](O)[C@H]1O [Adenosine] | 
37 | -12.38 | 40.03 | COc1cc2nc(N(C)CCCNC(=O)C3CCCO3)nc(N)c2cc1OC (stereo not shown) [Alfuzosin hydrochloride] | 
38 | -13.62 | 40.45 | O=c1nc2[nH]c3ccccc3nc-2c(=O)[nH]1 [Alloxazine] | 
39 | -9.33 | 39.00 | C=CCc1ccccc1OCC(O)CNC(C)C (stereo not shown) [Alprenolol hydrochloride] | 
40 | -0.35 | 35.99 | CN(C)c1nc(N(C)C)nc(N(C)C)n1 [Altretamine] | 
41 | 4.62 | 34.32 | N=C(N)NC(=O)c1nc(Cl)c(N)nc1N [Amiloride hydrochloride] | 
42 | 32.10 |  | CCCCc1oc2ccccc2c1C(=O)c1cc(I)c(OCCN(CC)CC)c(I)c1 [Amiodarone hydrochloride] | 
43 | -8.96 | 38.88 | Clc1ccc2c(c1)C(N1CCNCC1)=Nc1ccccc1O2 [Amoxapine] | 
44 | -10.85 | 39.52 | COc1cc(NS(C)(=O)=O)ccc1Nc1c2ccccc2nc2ccccc12 [Amsacrine hydrochloride] | 
45 | -4.15 |  | N=c1ccn2c(n1)O[C@H]1[C@H](O)[C@@H](CO)O[C@H]12 [Ancitabine hydrochloride] | 
46 | -17.43 | 41.73 | Cl.c1ccc(CN(CC2=NCCN2)c2ccccc2)cc1 [Antozoline hydrochloride] | 
47 | 95.84 | 3.68 | O=c1cc(-c2ccc(O)cc2)oc2cc(O)cc(O)c12 [Apigenin, reference compound] | inhibition at 20 µM [4]: 95.8%
48 | 80.27 | 8.92 | CN1CCc2cccc3c2[C@H]1Cc1ccc(O)c(O)c1-3 [Apomorphine hydrochloride hemihydrate] | 
49 | -7.94 | 38.54 | CC1CNc2c(cccc2S(=O)(=O)N[C@@H](CCCNC(=N)N)C(=O)N2CC[C@@H](C)C[C@@H]2C(=O)O)C1 (stereo partly shown) [Argatroban monohydrate] | 
50 | 1.55 |  | CC(C)c1c(C(=O)Nc2ccccc2)c(-c2ccccc2)c(-c2ccc(F)cc2)n1CC[C@@H](O)C[C@@H](O)CC(=O)O [Atorvastatin calcium salt trihydrate] | Plate 5 (% inhibition): 17.18%
51 | -14.40 | 40.71 | C[N+]1(C)[C@@H]2CC[C@H]1C[C@@H](OC(=O)C(CO)c1ccccc1)C2 (stereo partly shown) [Atropine methyl bromide] | 
52 | 2.78 | 34.94 | C[N+]1(C)[C@@H]2CC[C@H]1C[C@@H](OC(=O)C(CO)c1ccccc1)C2 (stereo partly shown) [Atropine methyl nitrate] | 
53 | 103.81 | 1.01 | O=C(O)C1=CC(=C(c2ccc(O)c(C(=O)O)c2)c2ccc(O)c(C(=O)O)c2)C=CC1=O [Aurintricarboxylic acid, reference compound] | inhibition at 20 µM [4]: 104%
